Data published in patent publication US10981881B2, “FXR (NR1H4) modulating compounds” (Gilead Sciences, Inc., priority 2016, dated 2021).

How the values were obtained:
[1] = Metabolite ID assay in human liver microsomes; format: in vitro ADME; conditions: human liver microsomes 1 mg/mL, 1 mM NADPH, 0, 30, 60 minutes
Experimental: The metabolic stability of Example 3 and Comparative Example 1 in human liver microsomes was conducted according to the following procedure. Human liver microsomes (35 μL protein concentration 20 mg/mL), 350 μL of 100 mM potassium phosphate buffer (pH 7.4), 245 μL of deionized water and 0.7 μL of compound stock solution (5 mM) were combined in a 1.5 mL microcentrifuge tube. The tube was sealed and gently vortexed for 10 seconds, then placed in an Eppendorf ThermoMixer C and pre-warmed at 37° C. with shaking at 1100 rpm for 5 minutes.
NADPH solution (70 μL; 10 mM in water) was added while shaking, the mixture was aspirated several times with pipet, and 200 μL was removed to a fresh 1.5 mL microcentrifuge tube on ice containing 200 μL of cold acetonitrile. […]
The chilled aliquots were centrifuged at 14,300 rpm in a microcentrifuge for 10 minutes at 10° C., then the supernatant was transferred to a deepwell (1 mL) 96 well plate and sealed with a silicon mat. […] 20 μL samples were analyzed by UPLC-MS in order to identify and quantify the metabolites (Agilent 1290 G4220 binary pump UPLC with Agilent G1316 TCC column oven; Waters Acquity UPLC BEH C18 (130 Å pore size, 1.7 μm particle size, 2.1×50 mm) column held at 40° C.; Agilent 1290 G4212 DAD diode array with wavelength range 190 to 400 nm; Thermo Electron Orbitrap Elite mass spectrometer in FTMS positive mode). […]

FGF19 = conditions: cynomolgus monkey, in vivo, po, 300 mg/kg
Experimental: In vivo pharmacodynamics of a representative compound of Formula (I) and a comparative example compound were determined as follows.
Each dosing group consisted of three male Cynomolgus monkeys. At dosing, the animals weighed between 2.5 and 4.4 kg.
The test articles were administered to the monkeys via oral gavage at 5 mL/kg. Prior to withdrawal, the gavage tube was flushed with approximately 10 mL of water.
Venous blood samples were taken at specified time points after dosing from each animal. The blood samples were collected and transferred into tubes containing potassium (K2) EDTA anticoagulant.
The FGF19 ELISA assay kit from BioVendor (product number RD191107200R) was used to determine FGF19 concentrations in the collected blood samples.
An aliquot of 50 μL of each plasma sample from the 10 and 30 mg/kg dosing groups and the t=0 samples from the 100 and 300 mg/kg groups were treated with 200 μL of acetonitrile (ACN) containing internal standard. […] Samples exceeding the calibration range of the instrument were diluted and re-analyzed. […]
An API 5000 triple quadrupole mass spectrometer from AB Sciex, Foster City, Calif. was used in multiple reaction monitoring mode to quantify the compounds.

| formation of diol metabolite M1 [1] | maximal plasma AUC achieved (FGF19) | plasma FGF19 Cmax (FGF19; male) [ng/mL] | SMILES |
| --- | --- | --- | --- |
| metabolized to a diol compound (M1) |  |  | O=C(O)c1cnc(N2CC(O)(c3ccc(OCc4c(-c5c(Cl)cccc5Cl)noc4C4CC4)cc3Cl)C2)c(F)c1 [Comparative Example 1] |
|  | comparable | 16 | O=C(O)c1cnc(N2CC(O)(c3ccc(OCc4c(-c5c(Cl)cc(F)cc5Cl)noc4C4CC4)cc3Cl)C2)c(F)c1 [Example 3, 6-(3-(2-chloro-4-((5-cyclopropyl-3-(2,6-dichloro-4-fluorophenyl)isoxazol-4-yl)methoxy)phenyl)-3-hydroxyazetidin-1-yl)-5-fluoronicotinic acid] |
